Test results from US9205124B2, “Compounds for enzyme inhibition” (Onyx Therapeutics, Inc., priority 2005, dated 2015).

Test system: proteasome CT-L activity
Experiment: Proteasome CT-L activity in blood lysates of mice one hour after oral dosing (LLVY-AMC cleavage)
Type: in vivo
Details: one hour post-dosing, vs vehicle-dosed cohort
Method: Compounds were formulated in 10% PS80/NaCitrate (pH 3) vehicle and administered to mice orally (PO) (3 animals/cohort). One hour post-dosing, the animals were sacrificed and the following tissues harvested: blood, brain, adrenal gland, heart and liver. Whole blood (˜200 μl) was washed twice with PBS and lysed by hypotonic shock (300 μl 50 mM Tris pH 8, 5 mM EDTA). Blood lysates were stored at −80° C. until assayed. Blood lysates were clarified by centrifugation in a microcentrifuge. The CT-L specific activity of proteasome in each lysate was evaluated by determining: a) the protein concentration by modified Bradford assay with bovine gamma globulin as a standard; and b) the rate of cleavage of the fluorogenic proteasome substrate LLVY-AMC. The percent proteasome activity for the analog-treated animals was calculated by dividing of the average specific activity for each analog-dosed cohort by the average specific activity of the vehicle-dosed cohort. Percent proteasome inhibition was calculated by subtracting percent proteasome activity from 100.

SMILES | proteasome CT-L inhibition (20 mg/kg PO) [%] | proteasome CT-L inhibition (40 mg/kg PO) [%]
Cc1cc(C(=O)N[C@@H](Cc2ccccn2)C(=O)N[C@@H](Cc2ccccc2)C(=O)N[C@@H](CC(C)C)C(=O)[C@@]2(C)CO2)no1 [Compound (055)] | > 80 | –
COC[C@H](NC(=O)c1cc(C)on1)C(=O)N[C@@H](Cc1cscn1)C(=O)N[C@@H](CC(C)C)C(=O)[C@@]1(C)CO1 [Compound (039)] | > 75 | –
CC(C)C[C@H](NC(=O)[C@H](Cc1ccccc1)NC(=O)[C@@H](NC(=O)c1cc(CN2CCOCC2)on1)C(C)C)C(=O)[C@@]1(C)CO1 [Compound (061)] | – | > 80
COC[C@H](NC(=O)c1cc(C)no1)C(=O)N[C@@H](COC)C(=O)N[C@@H](CC(C)C)C(=O)[C@@]1(C)CO1 [Compound (085)] | > 50 | –
CC(C)C[C@H](NC(=O)c1cc(CN2CCOCC2)on1)C(=O)N[C@@H](Cc1ccccc1)C(=O)N[C@@H](CC(C)C)C(=O)[C@@]1(C)CO1 [Compound (023)] | – | > 80
COCC[C@H](NC(=O)c1cc(C(C)C)on1)C(=O)N[C@@H](Cc1ccccc1)C(=O)N[C@@H](CC(C)C)C(=O)[C@@]1(C)CO1 [Compound (068)] | – | > 70
COC[C@H](NC(=O)c1cc(C)on1)C(=O)N[C@H](C(=O)N[C@@H](CC(C)C)C(=O)[C@@]1(C)CO1)C(C)C [Compound (029)] | > 70 | –
COC[C@H](NC(=O)c1cc(C)on1)C(=O)N[C@@H](Cc1ccccc1)C(=O)N[C@@H](CC(C)C)C(=O)[C@@]1(C)CO1 [Compound (010)] | – | > 90
COC[C@H](NC(=O)c1ccon1)C(=O)N[C@@H](COC)C(=O)N[C@@H](CC(C)C)C(=O)[C@@]1(C)CO1 [Compound (083)] | > 80 | –
